Where a name gives a salt, the structure may show the parent alone. Read-outs that look alike come from different tables or passages of the source.
What was measured:
Type in all cases: biochemical
[1] = molecular target: T1, human JAK2 (a.a. 828-1132) (Homo sapiens, UniProt O60674); assay: In vitro JAK kinase assay (HTRF, phosphorylation of a biotinylated peptide), JAK2
T1 construct: JAK2 (a.a. 828-1132); His tag (N); made in house; host or cells: insect cells (baculovirus)
Method in brief: (§1)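 Kinase activity was measured as phosphorylation of a biotinylated peptide, with ATP at 90 μM for JAK1, 30 μM for JAK2 and 3 μM for JAK3. Reactions ran 1 hr at room temperature, were stopped with EDTA plus SA-APC and Eu-Py20, and were read by HTRF after 40 minutes of antibody binding.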

TYK2 = TYK2 (Homo sapiens, UniProt P29597); assay: TYK2 kinase inhibition (Table A1)
TYK2, sequence (P29597 whole entry): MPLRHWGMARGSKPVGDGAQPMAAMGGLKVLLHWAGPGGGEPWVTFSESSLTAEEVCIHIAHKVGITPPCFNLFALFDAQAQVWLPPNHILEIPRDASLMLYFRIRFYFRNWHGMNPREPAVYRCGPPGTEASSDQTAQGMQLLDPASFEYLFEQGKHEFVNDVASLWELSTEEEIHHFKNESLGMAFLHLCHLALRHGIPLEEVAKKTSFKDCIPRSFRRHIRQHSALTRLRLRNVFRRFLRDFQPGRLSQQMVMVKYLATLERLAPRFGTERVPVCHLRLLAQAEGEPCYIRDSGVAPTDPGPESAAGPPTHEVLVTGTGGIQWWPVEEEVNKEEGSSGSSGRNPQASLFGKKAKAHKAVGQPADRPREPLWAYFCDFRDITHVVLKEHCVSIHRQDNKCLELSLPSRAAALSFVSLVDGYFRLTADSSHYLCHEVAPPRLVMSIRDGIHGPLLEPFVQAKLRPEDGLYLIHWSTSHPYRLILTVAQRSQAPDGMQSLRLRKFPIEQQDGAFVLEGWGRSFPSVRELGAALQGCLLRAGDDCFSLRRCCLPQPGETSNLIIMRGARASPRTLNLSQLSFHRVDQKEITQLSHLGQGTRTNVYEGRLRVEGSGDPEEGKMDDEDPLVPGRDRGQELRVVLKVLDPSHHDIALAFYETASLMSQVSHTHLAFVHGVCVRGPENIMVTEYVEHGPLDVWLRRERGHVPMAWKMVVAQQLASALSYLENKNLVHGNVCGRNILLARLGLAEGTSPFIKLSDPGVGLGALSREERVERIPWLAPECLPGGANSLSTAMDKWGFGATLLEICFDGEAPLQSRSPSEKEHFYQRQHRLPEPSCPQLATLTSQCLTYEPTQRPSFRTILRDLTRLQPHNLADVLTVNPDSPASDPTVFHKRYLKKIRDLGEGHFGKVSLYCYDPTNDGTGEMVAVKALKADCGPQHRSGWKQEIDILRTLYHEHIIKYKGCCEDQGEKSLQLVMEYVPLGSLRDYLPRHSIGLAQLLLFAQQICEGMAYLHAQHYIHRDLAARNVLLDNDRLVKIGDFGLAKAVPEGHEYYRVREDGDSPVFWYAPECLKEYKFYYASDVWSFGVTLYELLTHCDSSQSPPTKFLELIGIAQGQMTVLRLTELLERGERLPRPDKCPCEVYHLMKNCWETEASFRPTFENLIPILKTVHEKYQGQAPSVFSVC

[2] = molecular target: T2, human JAK3 (a.a. 781-1124) (Homo sapiens, UniProt P52333); assay: In vitro JAK kinase assay (HTRF, phosphorylation of a biotinylated peptide), JAK3
T2 construct: JAK3 (a.a. 781-1124); His tag (N); made in house; host or cells: insect cells (baculovirus)
T2 sequence (P52333 781-1124): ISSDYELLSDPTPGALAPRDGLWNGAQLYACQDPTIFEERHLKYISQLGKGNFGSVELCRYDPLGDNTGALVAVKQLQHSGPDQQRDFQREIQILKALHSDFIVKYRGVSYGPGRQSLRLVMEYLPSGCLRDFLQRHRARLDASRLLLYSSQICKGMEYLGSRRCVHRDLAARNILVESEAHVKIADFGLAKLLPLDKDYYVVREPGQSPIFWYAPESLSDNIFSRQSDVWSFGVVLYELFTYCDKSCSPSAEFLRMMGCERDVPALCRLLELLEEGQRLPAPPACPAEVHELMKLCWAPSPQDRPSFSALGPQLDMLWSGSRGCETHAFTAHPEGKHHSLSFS
Method in brief: as §1

[3] = molecular target: T3, human JAK1 (a.a. 837-1142) (Homo sapiens, UniProt P23458); assay: In vitro JAK kinase assay (HTRF, phosphorylation of a biotinylated peptide), JAK1; conditions: read-out: JAK1 IC50
T3 construct: human JAK1 (a.a. 837-1142); His tag (N); made in house; host or cells: insect cells (baculovirus)
T3 sequence (P23458 849-1154): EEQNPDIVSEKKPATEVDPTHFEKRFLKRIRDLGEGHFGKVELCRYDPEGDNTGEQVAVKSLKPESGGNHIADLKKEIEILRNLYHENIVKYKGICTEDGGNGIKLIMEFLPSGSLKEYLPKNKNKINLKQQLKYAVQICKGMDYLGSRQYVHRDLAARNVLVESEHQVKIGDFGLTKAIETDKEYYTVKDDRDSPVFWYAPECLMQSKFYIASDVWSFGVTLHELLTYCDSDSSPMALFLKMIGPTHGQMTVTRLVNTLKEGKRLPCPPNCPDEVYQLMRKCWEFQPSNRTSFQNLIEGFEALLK
Method in brief: as §1

T1 sequence (O60674 828-1132): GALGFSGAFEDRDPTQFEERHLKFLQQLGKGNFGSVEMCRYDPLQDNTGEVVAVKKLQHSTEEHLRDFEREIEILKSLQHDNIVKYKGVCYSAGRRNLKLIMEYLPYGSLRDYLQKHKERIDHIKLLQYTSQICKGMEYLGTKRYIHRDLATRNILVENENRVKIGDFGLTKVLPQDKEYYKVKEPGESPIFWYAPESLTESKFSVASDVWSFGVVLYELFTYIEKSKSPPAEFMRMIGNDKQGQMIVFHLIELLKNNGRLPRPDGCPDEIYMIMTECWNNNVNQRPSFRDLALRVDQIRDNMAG

| IC50 [1] [µM] | IC50 (TYK2) [µM] | IC50 [2] [µM] | IC50 [3] [µM] | IC50 ([1]; Table D1) [µM] | IC50 (TYK2; Table D1) [µM] | IC50 ([2]; Table D1) [µM] | IC50 ([3]; Table D1) [µM] | IC50 ([1]; method AA1 (30 μM ATP) or AA2 (1000 μM ATP), not stated per value) [µM] | IC50 ([2]; method AA1 (3 μM ATP) or AA2 (1000 μM ATP), not stated per value) [µM] | IC50 ([3]; method AA1 (90 μM ATP) or AA2 (1000 μM ATP), not stated per value) [µM] | Structure (SMILES) |
| --- | --- | --- | --- | --- | --- | --- | --- | --- | --- | --- | --- |
| – | – | – | – | > 0.4 | > 0.4 | > 0.4 | 0.041 | – | – | – | N#Cc1cccnc1N1CCN(C(=O)COc2ccc3cc2CCc2cncc(c2)Nc2ncc(Cl)c(n2)N3)CC1 [Example D238, 2-[4-({[6-Chloro-2,4,8,18,22-pentaazatetracyclo[14.3.1.1(3,7).1(9,13)]docosa-1(20),3(22),4,6,9(21),10,12,16,18-nonaen-12-yl]oxy}acetyl)piperazin-1-yl]nicotinonitrile tris(trifluoroacetate)] |
| – | – | – | – | 0.0066 | 0.04 | 0.031 | 0.024 | – | – | – | CC(=O)N1CCN(c2ccc3cc2CCc2cccc(c2)Nc2ncc(Cl)c(n2)N3)CC1 [Example D85, 12-(4-Acetylpiperazin-1-yl)-6-chloro-2,4,8,22-tetraazatetracyclo[14.3.1.1(3,7).1(9,13)]docosa-1(20),3(22),4,6,9(21),10,12,16,18-nonaene bis(trifluoroacetate)] |
| – | – | – | – | 0.16 | > 0.4 | > 0.4 | 0.032 | – | – | – | O=C(COc1ccc2cc1CCc1cncc(c1)Nc1ncc(Cl)c(n1)N2)N1CCN(c2cnccn2)CC1 [Example D232, 6-Chloro-12-[2-oxo-2-(4-pyrazin-2-ylpiperazin-1-yl)ethoxy]-2,4,8,18,22-pentaazatetracyclo[14.3.1.1(3,7).1(9,13)]docosa-1(20),3(22),4,6,9(21),10,12,16,18-nonaene tris(trifluoroacetate)] |
| – | – | – | – | > 0.4 | > 0.4 | > 0.4 | 0.082 | – | – | – | O=C(COc1ccc2cc1CCc1cncc(c1)Nc1ncc(Cl)c(n1)N2)N1CCN(c2cc(Cl)cc(Cl)n2)CC1 [Example D247, 6-Chloro-12-{2-[4-(4,6-dichloropyridin-2-yl)piperazin-1-yl]-2-oxoethoxy}-2,4,8,18,22-pentaazatetracyclo[14.3.1.1(3,7).1(9,13)]docosa-1(20),3(22),4,6,9(21),10,12,16,18-nonaene tris(trifluoroacetate)] |
| – | – | – | – | 0.314 | > 1 | > 1 | 0.06 | – | – | – | O=C(C[C@@H]1CCN(C(=O)Nc2ccccc2F)C1)Nc1ccc2cc1CCc1cncc(c1)Nc1ncc(Cl)c(n1)N2 [Example D135, (3S)-3-(2-{[6-Chloro-2,4,8,18,22-pentaazatetracyclo[14.3.1.1(3,7).1(9,13)]docosa-1(20),3(22),4,6,9(21),10,12,16,18-nonaen-12-yl]amino}-2-oxoethyl)-N-(2-fluorophenyl)pyrrolidine-1-carboxamide bis(trifluoroacetate)] |
| – | – | – | – | > 0.4 | > 0.4 | > 0.4 | 0.059 | – | – | – | O=C(COc1ccc2cc1CCc1cncc(c1)Nc1ncc(Cl)c(n1)N2)N1CCN(c2cccc(C(F)(F)F)n2)CC1 [Example D248, 6-Chloro-12-(2-oxo-2-{4-[6-(trifluoromethyl)pyridin-2-yl]piperazin-1-yl}ethoxy)-2,4,8,18,22-pentaazatetracyclo[14.3.1.1(3,7).1(9,13)]docosa-1(20),3(22),4,6,9(21),10,12,16,18-nonaene tris(trifluoroacetate)] |
| – | – | – | – | > 0.4 | > 0.4 | > 0.4 | 0.16 | – | – | – | N#Cc1ccc(NC(=O)N2CCC(CCOc3ccc4cc3CCc3cncc(c3)Nc3ncc(Cl)c(n3)N4)CC2)cc1 [Example D174, 4-(2-{[6-Chloro-2,4,8,18,22-pentaazatetracyclo[14.3.1.1(3,7).1(9,13)]docosa-1(20),3(22),4,6,9(21),10,12,16,18-nonaen-12-yl]oxy}ethyl)-N-(4-cyanophenyl)piperidine-1-carboxamide bis(trifluoroacetate)] |
| – | – | – | – | 0.034 | 0.414 | > 1 | 0.015 | – | – | – | O=C(CC1CN(C(=O)c2c[nH]nn2)C1)Nc1ccc2cc1CCc1cncc(c1)Nc1ncc(Cl)c(n1)N2 [Example D148, N-[6-Chloro-2,4,8,18,22-pentaazatetracyclo[14.3.1.1(3,7).1(9,13)]docosa-1(20),3(22),4,6,9(21),10,12,16,18-nonaen-12-yl]-2-[1-(1H-1,2,3-triazol-4-ylcarbonyl)azetidin-3-yl]acetamide bis(trifluoroacetate)] |
| – | – | – | – | > 0.4 | > 0.4 | > 0.4 | 0.255 | – | – | – | O=C(c1cccnc1)N1CCC(CCOc2ccc3cc2CCc2cncc(c2)Nc2ncc(Cl)c(n2)N3)CC1 [Example D180, 6-Chloro-12-{2-[1-(pyridin-3-ylcarbonyl)piperidin-4-yl]ethoxy}-2,4,8,18,22-pentaazatetracyclo[14.3.1.1(3,7).1(9,13)]docosa-1(20),3(22),4,6,9(21),10,12,16,18-nonaene tris(trifluoroacetate)] |
| – | – | – | – | 0.0064 | 0.031 | 0.057 | 0.011 | – | – | – | O=C(C[C@@H]1CCCN(C(=O)Nc2ccccc2)C1)Nc1ccc2cc1CCc1cccc(c1)Nc1ncc(Cl)c(n1)N2 [Example D196, (3S)-3-(2-{[6-Chloro-2,4,8,22-tetraazatetracyclo[14.3.1.1(3,7).1(9,13)]docosa-1(20),3(22),4,6,9(21),10,12,16,18-nonaen-12-yl]amino}-2-oxoethyl)-N-phenylpiperidine-1-carboxamide trifluoroacetate] |
| – | – | – | – | 0.096 | 0.5 | > 1 | 0.012 | – | – | – | O=C(CC1CN(c2nc3ccccc3s2)C1)Nc1ccc2cc1CCc1cncc(c1)Nc1ncc(Cl)c(n1)N2 [Example D138, 2-[1-(1,3-Benzothiazol-2-yl)azetidin-3-yl]-N-[6-chloro-2,4,8,18,22-pentaazatetracyclo[14.3.1.1(3,7).1(9,13)]docosa-1(20),3(22),4,6,9(21),10,12,16,18-nonaen-12-yl]acetamide tris(trifluoroacetate)] |

The next lines start with the molecule.

| Structure (SMILES) | IC50 [1] [µM] | IC50 (TYK2) [µM] | IC50 [2] [µM] | IC50 [3] [µM] | IC50 ([1]; Table D1) [µM] | IC50 (TYK2; Table D1) [µM] | IC50 ([2]; Table D1) [µM] | IC50 ([3]; Table D1) [µM] | IC50 ([1]; method AA1 (30 μM ATP) or AA2 (1000 μM ATP), not stated per value) [µM] | IC50 ([2]; method AA1 (3 μM ATP) or AA2 (1000 μM ATP), not stated per value) [µM] | IC50 ([3]; method AA1 (90 μM ATP) or AA2 (1000 μM ATP), not stated per value) [µM] |
| --- | --- | --- | --- | --- | --- | --- | --- | --- | --- | --- | --- |
| Cc1cc(C(=O)N2CCC(CC(=O)Nc3ccc4cc3CCc3cccc(c3)Nc3ncc(C)c(n3)N4)CC2)no1 [Example C54, 2-{1-[(5-Methylisoxazol-3-yl)carbonyl]piperidin-4-yl}-N-[6-methyl-2,4,8,22-tetraazatetracyclo[14.3.1.1(3,7).1(9,13)]docosa-1(20),3(22),4,6,9(21),10,12,16,18-nonaen-12-yl]acetamide trifluoroacetate] | 0.199 | 0.199 | > 0.2 | 0.065 | – | – | – | – | – | – | – |
| O=C(Cc1cccnc1)Nc1ccc2cc1CCc1cccc(c1)Nc1ncc(Cl)c(n1)N2 [Example C39, N-[6-Chloro-2,4,8,22-tetraazatetracyclo[14.3.1.1(3,7).1(9,13)]docosa-1(20),3(22),4,6,9(21),10,12,16,18-nonaen-12-yl]-2-pyridin-3-ylacetamide bis(trifluoroacetate)] | 0.029 | 0.195 | 1.22 | 0.054 | – | – | – | – | – | – | – |
| O=C(Cc1nnn[nH]1)Nc1ccc2cc1CCc1cccc(c1)Nc1ncc(Cl)c(n1)N2 [Example C31, N-[6-Chloro-2,4,8,22-tetraazatetracyclo[14.3.1.1(3,7).1(9,13)]docosa-1(20),3(22),4,6,9(21),10,12,16,18-nonaen-12-yl]-2-(1H-tetrazol-5-yl)acetamide trifluoroacetate] | 0.024 | 0.481 | 0.404 | 0.14 | – | – | – | – | – | – | – |
| O=C(Nc1ccc2cc1CCc1cccc(c1)Nc1ncc(Cl)c(n1)N2)C1CCN(C(=O)Nc2ccc(Cl)nc2)CC1 [Example A40, N(1)-(6-Chloropyridin-3-yl)-N(4)-[6-chloro-2,4,8,22-tetraazatetracyclo[14.3.1.1(3,7).1(9,13)]docosa-1(20),3(22),4,6,9(21),10,12,16,18-nonaen-12-yl]piperidine-1,4-dicarboxamide bis(trifluoroacetate)] | – | 0.018 | – | – | – | – | – | – | 0.015 | 0.03 | 0.016 |
| Cc1nc(CC(=O)Nc2ccc3cc2CCc2cccc(c2)Nc2ncc(Cl)c(n2)N3)cs1 [Example C38, N-[6-Chloro-2,4,8,22-tetraazatetracyclo[14.3.1.1(3,7).1(9,13)]docosa-1(20),3(22),4,6,9(21),10,12,16,18-nonaen-12-yl]-2-(2-methyl-1,3-thiazol-4-yl)acetamide trifluoroacetate] | 0.047 | 0.039 | 1.07 | 0.037 | – | – | – | – | – | – | – |
| CC(=O)N1CCC(COc2ccc3cc2CCc2cncc(c2)Nc2ncc(Cl)c(n2)N3)C1 (stereo not drawn) [Example C56, 12-[(1-Acetylpyrrolidin-3-yl)methoxy]-6-chloro-2,4,8,18,22-pentaazatetracyclo[14.3.1.1(3,7).1(9,13)]docosa-1(20),3(22),4,6,9(21),10,12,16,18-nonaene bis(trifluoroacetate)] | 0.255 | > 0.4 | > 0.4 | 0.216 | – | – | – | – | – | – | – |
| Cc1cc(C(=O)N2CCC(CC(=O)Nc3ccc4cc3CCc3cncc(c3)Nc3ncc(C)c(n3)N4)CC2)no1 [Example C51, 2-{1-[(5-Methylisoxazol-3-yl)carbonyl]piperidin-4-yl}-N-[6-methyl-2,4,8,18,22-pentaazatetracyclo[14.3.1.1(3,7).1(9,13)]docosa-1(20),3(22),4,6,9(21),10,12,16,18-nonaen-12-yl]acetamide bis(trifluoroacetate)] | 0.371 | 0.1 | > 0.4 | 0.013 | – | – | – | – | – | – | – |

— patent publication US8871753B2, “Macrocyclic compounds and their use as kinase inhibitors” (Incyte Corporation, priority 2008, dated 2014)
